In patent publication US9814759B2, “Pharmaceutical composition comprising recombinant hemoglobin protein or subunit-based therapeutic agent for cancer targeting treatment” (Cheer Global Ltd., priority 2014, dated 2017):

Experiments:
[1] = HPLC analysis of disulfide bond cleavage under reducing condition (GSH); format: physicochemical; conditions: PBS buffer (pH 7.4), 37° C., GSH 0.4-1000 equiv, 0-2 hrs
From the text: The glutathione (GSH) level is much higher in the cytoplasm of cancer cells (˜1000 equiv) when compared to blood stream (˜1 equiv). A therapeutic drug with a disulfide bond can be cleaved much more easily in the cytoplasm of cancer cells with high concentration of GSH. A high-performance liquid chromatography (HPLC) analysis for the cleavage of model compound (N-(2-mercaptoethyl)benzamide) with disulfide bond under reducing condition is shown in FIG. 12. The cleavage of model compound is observed in PBS buffer (pH 7.4) at 37° C. with different concentration of glutathione (GSH) (0.4-1000 equiv). […] In the present invention, the recombinant hemoglobin protein or recombinant hemoglobin tetramer or dimer or subunit linked with a therapeutic drug (e.g. chemotherapeutic agent, radiotherapeutic agent, anti-cancer protein drug) by a disulfide bond is prepared for cancer treatment.

[2] = native human hemoglobin, comparison value; cited from earlier work
[3] = tested on: liver cancer cells (HepG2); assay: Live cell time-lapse microscopy, uptake of fluorescent labeled hemoglobin subunits in cancer cells; format: cell-based; conditions: with heme (+) or without heme (−), 0.1% O2, FIG. 10
From the text: The pharmaceutical composition of the present invention comprises recombinant hemoglobin protein or recombinant hemoglobin tetramer or dimer or subunit-based therapeutic agent capable of both targeting and killing the cancer cells. […] The fluorescent labeled recombinant hemoglobin subunits can also enter into the cancer cells (e.g., liver cancer cells, HepG2) and localize in there, and the result is illustrated in FIG. 10. It is expected that the chemically modified recombinant hemoglobin protein or tetramer or dimer or subunit-based therapeutic agent can also kill the cancer cells and progenitor cells/cancer stem cells effectively.
Cancer cells (HepG2) are cultured in DMEM (Invitrogen) with 10% Fetal bovine serum (FBS), 100 U/mL penicillin and 100 μg/mL streptomycin at 37° C. For normoxic condition, cells are incubated with ambient O2 concentration and 5% CO2; for hypoxic condition, cells are incubated with 0.1-0.5% O2 (Quorum FC-7 automatic CO2/O2/N2 gas mixer) and 5% CO2.
Cancer cells (e.g. HepG2 liver cancer cells) are seeded onto glass bottom microwell dishes (MatTek Corporation). Live cells at defined zooms (63×, 20×) are acquired using Zeiss Observer Z1 widefield microscope, equipped with atmospheric/temperature-controlled chamber and motorized stage for multi-positional acquisition. The incubation is performed in an enclosed live cell imaging system purged with 0.1% O2 and 5% CO2 (premixed). Cells are exposed to the fluorescent labeled recombinant hemoglobin subunits (α, β, γ1, γ2); for 15 min prior to the acquisition of images every 3 min for a period of 2 h. Images are deconvolved and compacted into time-lapse movies using the MetaMorph software (Molecular Device).

Compound: O=C(NCCS)c1ccccc1 [model compound, N-(2-mercaptoethyl)benzamide]
- cleavage of disulfide bond at different GSH levels [1]: better at high concentration of GSH (>50 equiv)

Compound: native human hemoglobin: native human hemoglobin, comparison for p50
- p50 value (oxygen partial pressure necessary to produce 50 percent saturation of hemoglobin) [2]: 23-30 mm Hg

Compound: α: recombinant human hemoglobin monomer α (141 amino acids), with or without heme
- entry into / uptake by liver cancer cells [3]: can enter into liver cancer cells (HepG2) successfully

Compound: β: recombinant human hemoglobin monomer β (146 amino acids), with or without heme
- entry into / uptake by liver cancer cells [3]: can enter into liver cancer cells (HepG2) successfully

Compound: γ1: recombinant human hemoglobin monomer γ1 (146 amino acids), with or without heme
- entry into / uptake by liver cancer cells [3]: can enter into liver cancer cells (HepG2) successfully

Compound: γ2: recombinant human hemoglobin monomer γ2 (146 amino acids), with or without heme
- entry into / uptake by liver cancer cells [3]: can enter into liver cancer cells (HepG2) successfully
